In one assay the target is cdk4/cyclin D1 (Homo sapiens, UniProt P11802). Description: Cyclin-dependent kinase assay, cdk4/cyclin D1. The settings on record: cyclin D1/cdk4; GST-pRb substrate, 10 µM ATP. The format is biochemical.
The subject of a further assay is MDA-MB-435. Briefly: In vitro proliferation assay (MTT), MDA-MB-435. To be noted: Homo sapiens, MDA-MB-435, MTT assay; value (SD, n) where given; read-out: MB-435 Breast (IC50 µM). Type of assay: cell-based, human. The method in brief:
(§1)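 MTT viability, 3 d compound treatment; seeding 1000–2500 cells/well, overnight attachment; formazan in DMSO, A570; IC50 fitted from raw absorbance.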

Another assay deals with NCI-H460. Description: In vitro proliferation assay (MTT), NCI-H460. Type of assay: cell-based. To be noted: Homo sapiens, NCI-H460; MTT assay; value (SD, n) where given; read-out: H-460 Lung (IC50 µM). The method in brief: (§2)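 Plate 1000–2500 cells/well, RPMI 1640 + 5 % FBS, 3 mM L-glutamine; attach overnight → compound treatment 3 days → MTT, 37 C, 2–4 hr → remove medium, solubilize in DMSO → absorbance 570 nm → IC50.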

A further assay deals with HL-60. Briefly: In vitro proliferation assay (MTT), HL-60. The format is cell-based. To be noted: Homo sapiens, HL-60; MTT assay; value (SD, n) where given; read-out: HL-60 Leuk. (IC50 µM). An outline of the steps: as §2
The next assay deals with Jurkat. Description: In vitro proliferation assay (MTT), Jurkat. Type of assay: cell-based. To be noted: Homo sapiens, MTT assay, value (SD, n) where given, read-out: Jurkat Leuk. (IC50 µM). The method in brief:
as §2

The next assay relates to PC-3. Briefly: In vitro proliferation assay (MTT), PC-3. The format is cell-based, human. The settings on record: Homo sapiens, PC-3, MTT assay; value (SD, n) where given; read-out: PC-3 Prostate (IC50 µM). The method in brief: as §1
A further assay relates to Colo-205. Description: In vitro proliferation assay (MTT), Colo-205. Type of assay: cell-based. The settings on record: Homo sapiens, COLO 205; MTT assay; value (SD, n) where given; read-out: Colo-205 Colon (IC50 µM). The method in brief: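 Colo-205 cells were seeded at 1000–2500 cells/well and allowed to attach overnight, then exposed to compound for 3 days. Viable cells were measured by MTT reduction (2–4 h, 37 °C), with DMSO-solubilised dye read at 570 nm. IC50 was derived from concentration–response data.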

The target in a further assay is cdk1/cyclin B (Homo sapiens, UniProt P06493). Briefly: Cyclin-dependent kinase assay, cdk1/cyclin B. The settings on record: CDK1 IC50, nM, Histone H1, 10 µM ATP.
The next assay concerns the target cdk2/cyclin E (Homo sapiens, UniProt P24941). Briefly: Cyclin-dependent kinase assay, cdk2/cyclin E. The settings on record: CDK2 IC50, nM, GST-pRb substrate, 10 µM ATP.

Where a name gives a salt, the structure may show the parent alone. Where only a bound is given, the exact number is not on record here.

Chain of cdk4/cyclin D1 (P11802 whole entry): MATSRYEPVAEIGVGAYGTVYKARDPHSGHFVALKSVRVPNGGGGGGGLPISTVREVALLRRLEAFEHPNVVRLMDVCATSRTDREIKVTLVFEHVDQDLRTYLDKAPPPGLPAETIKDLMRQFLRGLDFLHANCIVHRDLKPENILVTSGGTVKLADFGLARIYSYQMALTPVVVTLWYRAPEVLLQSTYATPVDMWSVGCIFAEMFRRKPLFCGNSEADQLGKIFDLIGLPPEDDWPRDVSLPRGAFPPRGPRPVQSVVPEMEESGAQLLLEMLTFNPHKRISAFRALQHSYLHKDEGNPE
Chain of cdk4/cyclin D1 (P24385 whole entry partner): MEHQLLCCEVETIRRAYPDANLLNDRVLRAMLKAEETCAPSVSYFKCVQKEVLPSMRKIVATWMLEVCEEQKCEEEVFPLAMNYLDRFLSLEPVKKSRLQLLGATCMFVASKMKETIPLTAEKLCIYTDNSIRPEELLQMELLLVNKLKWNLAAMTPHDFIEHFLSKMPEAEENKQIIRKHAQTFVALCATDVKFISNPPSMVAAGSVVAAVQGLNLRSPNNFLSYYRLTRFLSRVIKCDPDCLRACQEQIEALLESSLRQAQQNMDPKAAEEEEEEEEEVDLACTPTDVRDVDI
Chain of cdk1/cyclin B (P06493 whole entry): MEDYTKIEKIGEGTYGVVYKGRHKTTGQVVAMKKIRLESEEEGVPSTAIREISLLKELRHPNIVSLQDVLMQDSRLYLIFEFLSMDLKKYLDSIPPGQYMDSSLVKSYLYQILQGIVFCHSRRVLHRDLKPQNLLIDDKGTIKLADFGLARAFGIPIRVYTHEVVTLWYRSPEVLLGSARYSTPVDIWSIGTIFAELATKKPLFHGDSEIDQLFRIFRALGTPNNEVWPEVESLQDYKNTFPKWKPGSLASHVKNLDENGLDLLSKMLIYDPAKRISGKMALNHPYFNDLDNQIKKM
Chain of cdk1/cyclin B (P14635 whole entry partner): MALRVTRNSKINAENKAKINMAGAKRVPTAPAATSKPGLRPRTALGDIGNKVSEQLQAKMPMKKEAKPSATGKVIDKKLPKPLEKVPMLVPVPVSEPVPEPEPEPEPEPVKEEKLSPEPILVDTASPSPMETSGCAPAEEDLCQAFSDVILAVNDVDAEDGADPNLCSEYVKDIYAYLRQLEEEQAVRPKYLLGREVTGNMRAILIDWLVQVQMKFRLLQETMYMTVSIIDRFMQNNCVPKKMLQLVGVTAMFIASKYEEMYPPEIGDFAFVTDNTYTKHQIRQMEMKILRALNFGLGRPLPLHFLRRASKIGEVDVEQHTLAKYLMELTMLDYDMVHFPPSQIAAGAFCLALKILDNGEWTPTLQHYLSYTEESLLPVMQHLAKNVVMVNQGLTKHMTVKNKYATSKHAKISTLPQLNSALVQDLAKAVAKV

As to `N[C@H]1CC[C@H](Nc2nc(NC3CCN(C(=O)Nc4cccc(Br)c4)CC3)c3ncn(C4CCCC4)c3n2)CC1` [compound 170, trans-4-[2-(4-Amino-cyclohexylamino)-9-cyclopentyl-9H-purin-6-ylamino]-piperidine-1-carboxylic acid (3-bromo-phenyl)-amide dihydrochloride], the half-maximal inhibitory concentration (IC50) on cdk4/cyclin D1 was 156 nM; in the assay on MDA-MB-435 it was 0.19 µM; in the assay with NCI-H460, 0.3 µM; in the assay on HL-60 it was < 0.02 µM; in the assay on Jurkat, 0.24 µM; with PC-3 it was 0.26 µM. In addition, the results for the half-inhibitory concentration (IC50) with Colo-205, on cdk1/cyclin B and against cdk2/cyclin E were < 0.02 µM, 3 nM and 51 nM, respectively.

With `CCOc1ccccc1NC(=O)N1CCC(Nc2nc(N[C@H]3CC[C@H](N)CC3)nc3c2ncn3C2CCCC2)CC1` [compound 171, trans-4-[2-(4-Amino-cyclohexylamino)-9-cyclopentyl-9H-purin-6-ylamino]-piperidine-1-carboxylic acid (2-ethoxy-phenyl)-amide dihydrochloride], the IC50 on cdk4/cyclin D1 is 963 nM; in the assay on MDA-MB-435, 0.25 µM; with NCI-H460, 0.23 µM; in the assay with HL-60 it was 0.05 µM; in the assay on Jurkat it was 0.31 µM; with PC-3, 0.23 µM. For the same molecule, the values for the IC50 with Colo-205, on cdk1/cyclin B and against cdk2/cyclin E were 0.14 µM, 51 nM and 89 nM, respectively.

As to `N[C@H]1CC[C@H](Nc2nc(NC3CCN(C(=O)Nc4ccc(OC(F)(F)F)cc4)CC3)c3ncn(C4CCCC4)c3n2)CC1` [compound 175, trans-4-[2-(4-Amino-cyclohexylamino)-9-cyclopentyl-9H-purin-6-ylamino]-piperidine-1-carboxylic acid (4-trifluoromethoxy-phenyl)-amide dihydrochloride], the half-inhibitory concentration (IC50) was 682 nM at cdk4/cyclin D1; 0.12 µM with MDA-MB-435; 0.23 µM in the assay with NCI-H460; 0.04 µM in the assay with HL-60; 0.16 µM with Jurkat; 0.2 µM with PC-3. For the same molecule, the values for the IC50 in the assay with Colo-205, at cdk1/cyclin B and against cdk2/cyclin E were 0.05 µM, 12 nM and 114 nM, respectively.

`N[C@H]1CC[C@H](Nc2nc(NC3CCN(C(=O)Nc4cc(C(F)(F)F)ccc4Cl)CC3)c3ncn(C4CCCC4)c3n2)CC1` [compound 177, trans-4-[2-(4-Amino-cyclohexylamino)-9-cyclopentyl-9H-purin-6-ylamino]-piperidine-1-carboxylic acid (2-chloro-5-trifluoromethyl-phenyl)-amide dihydrochloride]: the IC50 on cdk4/cyclin D1 worked out at 432 nM; in the assay with MDA-MB-435 it was 0.17 µM; in the assay with NCI-H460, 0.14 µM; in the assay on HL-60 it was 0.03 µM; in the assay with Jurkat, 0.21 µM; in the assay with PC-3, 0.15 µM. Further, the IC50 was 0.12 µM with Colo-205, 7 nM at cdk1/cyclin B and 60 nM against cdk2/cyclin E.

Turning to `N[C@H]1CC[C@H](Nc2nc(NC3CCN(C(=O)Nc4ccc(Cl)cc4C(F)(F)F)CC3)c3ncn(C4CCCC4)c3n2)CC1` [compound 178, trans-4-[2-(4-Amino-cyclohexylamino)-9-cyclopentyl-9H-purin-6-ylamino]-piperidine-1-carboxylic acid (4-chloro-2-trifluoromethyl-phenyl)-amide dihydrochloride], the IC50 was 879 nM against cdk4/cyclin D1; 0.14 µM in the assay with MDA-MB-435; 0.23 µM with NCI-H460; < 0.02 µM with HL-60; 0.28 µM in the assay on Jurkat; 0.16 µM in the assay on PC-3. The 50% inhibitory concentration (IC50) with Colo-205 turned out to be 0.09 µM; against cdk1/cyclin B, 49 nM; against cdk2/cyclin E, 100 nM.

For `N[C@H]1CC[C@H](Nc2nc(NC3CCN(C(=O)Nc4ccc(Cl)c(C(F)(F)F)c4)CC3)c3ncn(C4CCCC4)c3n2)CC1` [compound 179, trans-4-[2-(4-Amino-cyclohexylamino)-9-cyclopentyl-9H-purin-6-ylamino]-piperidine-1-carboxylic acid (4-chloro-3-trifluoromethyl-phenyl)-amide dihydrochloride], the half-inhibitory concentration (IC50) against cdk4/cyclin D1 was 497 nM; in the assay with MDA-MB-435, 0.24 µM; in the assay on NCI-H460 it was 0.5 µM; in the assay on HL-60, 0.07 µM; in the assay with Jurkat it was 0.5 µM; with PC-3, 0.37 µM. Further, the half-inhibitory concentration (IC50) came out at 0.18 µM in the assay on Colo-205, 8 nM on cdk1/cyclin B and 261 nM against cdk2/cyclin E.

For the molecule `N[C@H]1CC[C@H](Nc2nc(NC3CCN(C(=O)Nc4cc(F)ccc4F)CC3)c3ncn(C4CCCC4)c3n2)CC1` [compound 180, trans-4-[2-(4-Amino-cyclohexylamino)-9-cyclopentyl-9H-purin-6-ylamino]-piperidine-1-carboxylic acid (2,5-difluoro-phenyl)-amide dihydrochloride], the half-inhibitory concentration (IC50) is 431 nM against cdk4/cyclin D1; 0.1 µM in the assay on MDA-MB-435; 0.12 µM in the assay with NCI-H460; < 0.02 µM in the assay on HL-60; 0.2 µM in the assay with Jurkat; 0.09 µM with PC-3. Moreover, the IC50 worked out at 0.04 µM with Colo-205, 12 nM at cdk1/cyclin B and 44 nM at cdk2/cyclin E.

As to `N[C@H]1CC[C@H](Nc2nc(NC3CCN(C(=O)Nc4cc(Cl)cc(Cl)c4)CC3)c3ncn(C4CCCC4)c3n2)CC1` [compound 182, trans-4-[2-(4-Amino-cyclohexylamino)-9-cyclopentyl-9H-purin-6-ylamino]-piperidine-1-carboxylic acid (3,5-dichloro-phenyl)-amide dihydrochloride], the 50% inhibitory concentration (IC50) at cdk4/cyclin D1 is 305 nM; with MDA-MB-435, 0.15 µM; with NCI-H460, 0.12 µM; with HL-60, 0.02 µM; with Jurkat, 0.17 µM; in the assay with PC-3 it was 0.1 µM. In addition, the half-inhibitory concentration (IC50) with Colo-205 is < 0.02 µM; against cdk1/cyclin B, 32 nM; on cdk2/cyclin E it was 174 nM.

As for `Cc1ccc(NC(=O)N2CCC(Nc3nc(N[C@H]4CC[C@H](N)CC4)nc4c3ncn4C3CCCC3)CC2)cc1` [compound 183, trans-4-[2-(4-Amino-cyclohexylamino)-9-cyclopentyl-9H-purin-6-ylamino]-piperidine-1-carboxylic acid (4-methyl-phenyl)-amide dihydrochloride], the IC50 at cdk4/cyclin D1 is 338 nM; in the assay on MDA-MB-435, 0.11 µM; in the assay on NCI-H460, 0.2 µM; in the assay on HL-60 it was < 0.02 µM; in the assay with Jurkat, 0.19 µM; in the assay with PC-3 it was 0.17 µM. Besides, the 50% inhibitory concentration (IC50) in the assay with Colo-205 was found to be 0.05 µM; at cdk1/cyclin B, 17 nM; against cdk2/cyclin E, 64 nM.

Regarding `CSc1ccc(NC(=O)N2CCC(Nc3nc(N[C@H]4CC[C@H](N)CC4)nc4c3ncn4C3CCCC3)CC2)cc1` [compound 186, trans-4-[2-(4-Amino-cyclohexylamino)-9-cyclopentyl-9H-purin-6-ylamino]-piperidine-1-carboxylic acid (4-methylsulfanyl-phenyl)-amide dihydrochloride], the IC50 was 465 nM on cdk4/cyclin D1; 0.09 µM in the assay on MDA-MB-435; 0.28 µM in the assay with NCI-H460; < 0.02 µM in the assay with HL-60; 0.21 µM in the assay on Jurkat; 0.16 µM in the assay on PC-3. The figures for the IC50 in the assay on Colo-205, against cdk1/cyclin B and at cdk2/cyclin E were 0.03 µM, 11 nM and 56 nM, respectively.

For the molecule `N[C@H]1CC[C@H](Nc2nc(NC3CCN(C(=O)Nc4ccccc4-c4ccccc4)CC3)c3ncn(C4CCCC4)c3n2)CC1` [compound 187, trans-4-[2-(4-Amino-cyclohexylamino)-9-cyclopentyl-9H-purin-6-ylamino]-piperidine-1-carboxylic acid biphenyl-2-yl-amide dihydrochloride], the half-maximal inhibitory concentration (IC50) against cdk4/cyclin D1 is 831 nM; in the assay with MDA-MB-435, 0.21 µM; in the assay on NCI-H460, 0.25 µM; in the assay with HL-60, < 0.02 µM; with Jurkat, 0.35 µM; with PC-3, 0.19 µM. Also, the figures for the IC50 in the assay on Colo-205, at cdk1/cyclin B and against cdk2/cyclin E were 0.19 µM, 280 nM and 61 nM, respectively.

In the case of `CC(C)c1ccc(NC(=O)N2CCC(Nc3nc(N[C@H]4CC[C@H](N)CC4)nc4c3ncn4C3CCCC3)CC2)cc1` [compound 190, trans-4-[2-(4-Amino-cyclohexylamino)-9-cyclopentyl-9H-purin-6-ylamino]-piperidine-1-carboxylic acid (4-isopropyl-phenyl)-amide dihydrochloride], the concentration for half-maximal inhibition (IC50) against cdk4/cyclin D1 was 357 nM; with MDA-MB-435, 0.09 µM; with NCI-H460 it was 0.36 µM; in the assay with HL-60 it was < 0.02 µM; with Jurkat it was 0.2 µM; in the assay with PC-3 it was 0.2 µM. The IC50 worked out at 0.02 µM in the assay on Colo-205, 23 nM against cdk1/cyclin B and 40 nM against cdk2/cyclin E.
